# Laboratory results published in US20210254272A1, “TEXTILES HAVING ANTIMICROBIAL PROPERTIES” (Livinguard AG, priority 2015, published 2021).
# Experiment: Leaching test: 100 g fabric soaked in 10 liters stagnant distilled water, 3 days (72 hours)
# Assay type: physicochemical
# Conditions: for Leaching of active ingredients: exhaust 80° C. 60 min, cured 180° C. 2 min, post wash
# Description: (§1) The test procedure for leaching was as follows: 100 g (grams) of fabric as well as control fabrics were soaked in 10 liters of stagnant distilled water in a closed wide mouth jar. After 3 days (72 hours), the water samples were tested for leached substances as per standard analytical methods.
# as §1, with “methods. A weight of 100 g fabric was chosen because in the preferred embodiment of the water filter as described further below, each filter comprises a strip of fabric with 210 g/m^2, 3 meters long and 0.16 meters wide, which corresponds to 100 g of fabric.” for “methods.”
substance,measurement,setting,value
Silver,Leaching of active ingredients (in ppm),"0.2% each in mixture (o.w.f), exhaust 80° C., 60 min, curing 180° C., 2 min, unwashed",7 ppm
same,Leaching of active ingredients (in ppm),"0.5% each in mixture (o.w.f), exhaust 80° C., 60 min, curing 180° C., 2 min, unwashed",11 ppm
same,Leaching of active ingredients (in ppm),"1.0% each in mixture (o.w.f), exhaust 80° C., 60 min, curing 180° C., 2 min, unwashed",18 ppm
same,Leeching in ppm,"Exhaust + Wash + pad + Wash, exhaust 0.1% o.w.f. each in mixture, 1 gm/liter pad",0.3 ppm
same,Leeching in ppm,"Exhaust + Wash + pad + Wash, exhaust 0.1% o.w.f. each in mixture, 5 gm/liter pad",0.5 ppm
same,Leeching in ppm,"Exhaust + Wash + pad + Wash, exhaust 0.1% o.w.f. each in mixture, 10 gm/liter pad",0.6 ppm
same,Leeching in ppm,"Exhaust + Wash + pad + Wash, exhaust 0.25% o.w.f. each in mixture, 1 gm/liter pad",3 ppm
same,Leeching in ppm,"Exhaust + Wash + pad + Wash, exhaust 0.25% o.w.f. each in mixture, 5 gm/liter pad",7 ppm
same,Leeching in ppm,"Exhaust + Wash + pad + Wash, exhaust 0.25% o.w.f. each in mixture, 10 gm/liter pad",16 ppm
same,Leeching in ppm,"Exhaust + Wash + pad + Wash, exhaust 0.5 (% o.w.f) each in mixture, 1 gm/liter pad",8 ppm
same,Leeching in ppm,"Exhaust + Wash + pad + Wash, exhaust 0.5 (% o.w.f) each in mixture, 5 gm/liter pad",14 ppm
same,Leeching in ppm,"Exhaust + Wash + pad + Wash, exhaust 0.5 (% o.w.f) each in mixture, 10 gm/liter pad",22 ppm
same,Leeching in ppm,"Exhaust + Wash + pad + Wash, exhaust 1.0% o.w.f. each in mixture, 1 gm/liter pad",14 ppm
same,Leeching in ppm,"Exhaust + Wash + pad + Wash, exhaust 1.0% o.w.f. each in mixture, 5 gm/liter pad",23 ppm
same,Leeching in ppm,"Exhaust + Wash + pad + Wash, exhaust 1.0% o.w.f. each in mixture, 10 gm/liter pad",28 ppm
same,Leeching in ppm,"Exhaust + pad + Wash, exhaust 0.1% o.w.f. each in mixture, 1 gm/liter pad",145 ppm
same,Leeching in ppm,"Exhaust + pad + Wash, exhaust 0.1% o.w.f. each in mixture, 5 gm/liter pad",235 ppm
same,Leeching in ppm,"Exhaust + pad + Wash, exhaust 0.1% o.w.f. each in mixture, 10 gm/liter pad",254 ppm
same,Leeching in ppm,"Exhaust + pad + Wash, exhaust 0.25% o.w.f. each in mixture, 1 gm/liter pad",223 ppm
same,Leeching in ppm,"Exhaust + pad + Wash, exhaust 0.25% o.w.f. each in mixture, 5 gm/liter pad",257 ppm
same,Leeching in ppm,"Exhaust + pad + Wash, exhaust 0.25% o.w.f. each in mixture, 10 gm/liter pad",534 ppm
same,Leeching in ppm,"Exhaust + pad + Wash, exhaust 0.5 (% o.w.f) each in mixture, 1 gm/liter pad",456 ppm
same,Leeching in ppm,"Exhaust + pad + Wash, exhaust 0.5 (% o.w.f) each in mixture, 5 gm/liter pad",573 ppm
same,Leeching in ppm,"Exhaust + pad + Wash, exhaust 0.5 (% o.w.f) each in mixture, 10 gm/liter pad",645 ppm
same,Leeching in ppm,"Exhaust + pad + Wash, exhaust 1.0% o.w.f. each in mixture, 1 gm/liter pad",534 ppm
same,Leeching in ppm,"Exhaust + pad + Wash, exhaust 1.0% o.w.f. each in mixture, 5 gm/liter pad",654 ppm
same,Leeching in ppm,"Exhaust + pad + Wash, exhaust 1.0% o.w.f. each in mixture, 10 gm/liter pad",849 ppm
same,Leeching in ppm,"Exhaust + pad, exhaust 0.1% o.w.f. each in mixture, 1 gm/liter pad",208 ppm
same,Leeching in ppm,"Exhaust + pad, exhaust 0.1% o.w.f. each in mixture, 5 gm/liter pad",298 ppm
same,Leeching in ppm,"Exhaust + pad, exhaust 0.1% o.w.f. each in mixture, 10 gm/liter pad",362 ppm
same,Leeching in ppm,"Exhaust + pad, exhaust 0.25% o.w.f. each in mixture, 1 gm/liter pad",320 ppm
same,Leeching in ppm,"Exhaust + pad, exhaust 0.25% o.w.f. each in mixture, 5 gm/liter pad",321 ppm
same,Leeching in ppm,"Exhaust + pad, exhaust 0.25% o.w.f. each in mixture, 10 gm/liter pad",387 ppm
same,Leeching in ppm,"Exhaust + pad, exhaust 0.5 (% o.w.f) each in mixture, 1 gm/liter pad",398 ppm
same,Leeching in ppm,"Exhaust + pad, exhaust 0.5 (% o.w.f) each in mixture, 5 gm/liter pad",453 ppm
same,Leeching in ppm,"Exhaust + pad, exhaust 0.5 (% o.w.f) each in mixture, 10 gm/liter pad",801 ppm
same,Leeching in ppm,"Exhaust + pad, exhaust 1.0% o.w.f. each in mixture, 1 gm/liter pad",595 ppm
same,Leeching in ppm,"Exhaust + pad, exhaust 1.0% o.w.f. each in mixture, 5 gm/liter pad",749 ppm
same,Leeching in ppm,"Exhaust + pad, exhaust 1.0% o.w.f. each in mixture, 10 gm/liter pad",1234 ppm
same,Leeching in ppm,"Exhaust +Wash + pad, exhaust 0.1% o.w.f. each in mixture, 1 gm/liter pad",86 ppm
same,Leeching in ppm,"Exhaust +Wash + pad, exhaust 0.1% o.w.f. each in mixture, 5 gm/liter pad",164 ppm
same,Leeching in ppm,"Exhaust +Wash + pad, exhaust 0.1% o.w.f. each in mixture, 10 gm/liter pad",254 ppm
same,Leeching in ppm,"Exhaust +Wash + pad, exhaust 0.25% o.w.f. each in mixture, 1 gm/liter pad",196 ppm
same,Leeching in ppm,"Exhaust +Wash + pad, exhaust 0.25% o.w.f. each in mixture, 5 gm/liter pad",212 ppm
same,Leeching in ppm,"Exhaust +Wash + pad, exhaust 0.25% o.w.f. each in mixture, 10 gm/liter pad",324 ppm
same,Leeching in ppm,"Exhaust +Wash + pad, exhaust 0.5 (% o.w.f) each in mixture, 1 gm/liter pad",375 ppm
same,Leeching in ppm,"Exhaust +Wash + pad, exhaust 0.5 (% o.w.f) each in mixture, 5 gm/liter pad",435 ppm
same,Leeching in ppm,"Exhaust +Wash + pad, exhaust 0.5 (% o.w.f) each in mixture, 10 gm/liter pad",578 ppm
same,Leeching in ppm,"Exhaust +Wash + pad, exhaust 1.0% o.w.f. each in mixture, 1 gm/liter pad",475 ppm
same,Leeching in ppm,"Exhaust +Wash + pad, exhaust 1.0% o.w.f. each in mixture, 5 gm/liter pad",546 ppm
same,Leeching in ppm,"Exhaust +Wash + pad, exhaust 1.0% o.w.f. each in mixture, 10 gm/liter pad",656 ppm
same,Leaching of active ingredients (in ppm),"exhaust 60° C., solution dosage 1% o.w.f, process time 60 min",21 ppm
same,Leaching of active ingredients (in ppm),"exhaust 60° C., solution dosage 1% o.w.f, process time 90 min",13 ppm
same,Leaching of active ingredients (in ppm),"exhaust 60° C., solution dosage 1% o.w.f, process time 120 min",13 ppm
same,Leaching of active ingredients (in ppm),"exhaust 60° C., solution dosage 1% o.w.f, process time 180 min",12 ppm
same,Leaching of active ingredients (in ppm),"exhaust 60° C., solution dosage 1% o.w.f, process time 240 min",15 ppm
same,Leaching of active ingredients,mixture 0.2% o.w.f. each,0.3 ppm
same,Leaching of active ingredients,mixture 0.5% o.w.f. each,0.5 ppm
same,Leaching of active ingredients,mixture 1% o.w.f. each,0.9 ppm
same,Leaching of active ingredients (in ppm),"exhaust 80° C., 1% o.w.f, 60 min, curing 170° C., curing dwell time 0.5 min",28 ppm
same,Leaching of active ingredients (in ppm),"exhaust 80° C., 1% o.w.f, 60 min, curing 170° C., curing dwell time 1.0 min",24 ppm
same,Leaching of active ingredients (in ppm),"exhaust 80° C., 1% o.w.f, 60 min, curing 170° C., curing dwell time 1.5 min",21 ppm
same,Leaching of active ingredients (in ppm),"exhaust 80° C., 1% o.w.f, 60 min, curing 170° C., curing dwell time 2.0 min",13 ppm
same,Leaching of active ingredients (in ppm),"exhaust 80° C., 1% o.w.f, 60 min, curing 170° C., curing dwell time 2.5 min",19 ppm
same,Leaching of active ingredients (in ppm),"exhaust 80° C., 1% o.w.f, 60 min, curing 170° C., curing dwell time 3.0 min",19 ppm
same,Leaching of active ingredients (in ppm),"exhaust 80° C., 1% o.w.f, 60 min, curing 180° C., curing dwell time 0.5 min",21 ppm
same,Leaching of active ingredients (in ppm),"exhaust 80° C., 1% o.w.f, 60 min, curing 180° C., curing dwell time 1.0 min",13 ppm
same,Leaching of active ingredients (in ppm),"exhaust 80° C., 1% o.w.f, 60 min, curing 180° C., curing dwell time 1.5 min",13 ppm
same,Leaching of active ingredients (in ppm),"exhaust 80° C., 1% o.w.f, 60 min, curing 180° C., curing dwell time 2.0 min",4 ppm
same,Leaching of active ingredients (in ppm),"exhaust 80° C., 1% o.w.f, 60 min, curing 180° C., curing dwell time 2.5 min",12 ppm
same,Leaching of active ingredients (in ppm),"exhaust 80° C., 1% o.w.f, 60 min, curing 180° C., curing dwell time 3.0 min",12 ppm
same,Leaching of active ingredients (in ppm),"exhaust 80° C., 1% o.w.f, 60 min, curing dwell time at 190° C. (title): 0.5 min",18 ppm
same,Leaching of active ingredients (in ppm),"exhaust 80° C., 1% o.w.f, 60 min, curing dwell time at 190° C. (title): 1.0 min",12 ppm
same,Leaching of active ingredients (in ppm),"exhaust 80° C., 1% o.w.f, 60 min, curing dwell time at 190° C. (title): 1.5 min",10 ppm
same,Leaching of active ingredients (in ppm),"exhaust 80° C., 1% o.w.f, 60 min, curing dwell time at 190° C. (title): 2.0 min",10 ppm
same,Leaching of active ingredients (in ppm),"exhaust 80° C., 1% o.w.f, 60 min, curing dwell time at 190° C. (title): 2.5 min",24 ppm
same,Leaching of active ingredients (in ppm),"exhaust 80° C., 1% o.w.f, 60 min, curing dwell time at 190° C. (title): 3.0 min",35 ppm
